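In this assay, cells in 96-well plates receive the compound at five concentrations for 48 hours. Endpoints are linearly interpolated between the surrounding concentrations. At the GI50, growth is halved. TGI denotes the concentration required for complete inhibition of growth.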 Bounds are passed on as bounds.

The text below walks through data of PubChem BioAssay (NCI).

Holding throughout (experiment): NCI anticancer screen, dose series, 48 h
Assay [1] concerns KM12 colon.
Assay [2] has as its system SN12C renal.
In assay [3] the test system is OVCAR-4 ovarian.
Assay [4] relates to NCI-H23 lung.
The subject of assay [5] is HCT-15 colon.
Assay [6] concerns SNB-19 CNS.
For assay [7], the system named is NCI-H522 lung.
Assay [8] relates to PC-3 prostate.
Assay [9] has as its system CAKI-1 renal.
The test system of assay [10] is A498 renal.

`O=C(c1ccccc1Nc1ccnc(C(F)(F)F)c1)N1CCN(c2cccc(Cl)c2)CC1`: the GI50 in [1] was 25.7 µM; in [2], 16.4 µM; in [3], 12.7 µM; in assay [4] it was 17.6 µM; in assay [5], 24.1 µM; in assay [6] it was 26.1 µM. In addition, the GI50 in [7] was 15.4 µM; in assay [8] it was 9.45 µM; in assay [9], 21 µM; in assay [10], 12.7 µM. The TGI in assay [1] is greater than 80.2 µM; in assay [2], 45 µM; in assay [3], greater than 100 µM; in assay [4], greater than 100 µM; in assay [5], greater than 100 µM; in assay [6], greater than 100 µM. Further, the TGI was determined as 63.5 µM in [7], 53 µM in assay [8], 75 µM in assay [9] and 46.3 µM in assay [10].
Consider `O=c1[nH]cc(CS(=O)(=O)Cc2c[nH]c(=O)[nH]c2=O)c(=O)[nH]1`, for which the TGI in assay [1], in assay [2], in [3], in assay [4], in assay [5] and in [6] was greater than 100 µM in each case. Further, the TGI in assay [7], in assay [8], in assay [9] and in [10] was greater than 100 µM each time.
Turning to `Cc1ccc(Cl)cc1Nc1nc(C(F)(F)F)ccc1C(=O)Nc1cccc(C(F)(F)F)c1`, the GI50 in assay [1] is 3.12 µM; in assay [2], 4.29 µM; in assay [3] it was 3.58 µM; in [4], 2.63 µM; in assay [5], 3.67 µM; in assay [6], 3.59 µM. Besides, the GI50 in assay [7] is 1.78 µM; in [8], 2.07 µM; in assay [9], 4.14 µM; in assay [10], 2.97 µM. Further, the TGI in [1] is 12.8 µM; in [2] it was 18.7 µM; in assay [3], 17.8 µM; in assay [4], 11.9 µM; in [5], 14.9 µM; in assay [6], 14.6 µM. Further, the TGI in [7] is 6.37 µM; in assay [8], 13.4 µM; in [9] it was 18.1 µM; in assay [10], 8.59 µM.
`COc1ccccc1/C=C\c1cnnc2ccccc12`: the TGI in [1], in [2], in [3], in assay [4], in assay [5] and in [6] was greater than 10 µM each time. The TGI in [7], in [8], in [9] and in assay [10] was greater than 10 µM in each case.
`O=C1NC(=O)/C(=C/C=C/c2ccccc2)S1`: the GI50 in assay [1] is 8.25 µM; in assay [2], 2.05 µM; in assay [3], 80.8 µM; in assay [4], 1.74 µM; in [5], 9.3 µM; in assay [6], 1.42 µM. Also, the GI50 was 7.82 µM in [7], 19.4 µM in [8], 0.46 µM in assay [9] and 0.373 µM in [10]. Besides, the TGI in [1] was 21.8 µM; in assay [2], greater than 100 µM; in assay [3] it was greater than 100 µM; in [4], greater than 41.4 µM; in [5], 51.7 µM; in assay [6] it was 20.3 µM. In addition, the TGI in assay [7] is 52.7 µM; in assay [8], greater than 100 µM; in [9], 8.86 µM; in [10], 18.8 µM.
`CC(=O)Oc1ccc(OC(C)=O)c2ccccc12`: the GI50 in assay [1] is 10.9 µM; in [2] it was 14 µM; in [3], 1.71 µM; in assay [4] it was 12.7 µM; in assay [5], 14.3 µM; in [6], 30.5 µM. The GI50 was 2.04 µM in assay [7], 6.24 µM in [8], 6.79 µM in [9] and 19.2 µM in [10]. The TGI in assay [1] was 23.4 µM; in assay [2], 27.5 µM; in assay [3] it was 3.1 µM; in [4], 27.5 µM; in [5], 34.5 µM; in [6] it was greater than 100 µM. Further, the TGI in assay [7] stood at 5.41 µM; in [8] it was 25.6 µM; in [9] it was 23.3 µM; in [10] it was 48.4 µM.
Consider `CCOC1OCCCC1Br` (stereo not given), for which the TGI in [1], in [2], in assay [3], in assay [4], in [5] and in assay [6] was greater than 100 µM each time. Besides, the TGI in assay [7], in [8], in [9] and in [10] was greater than 100 µM in each case.
As to `Cl.[Pt].[c-]1ccccc1-c1ccccn1.c1ccc(P(c2ccccc2)C([PH+](c2ccccc2)c2ccccc2)[PH+](c2ccccc2)c2ccccc2)cc1`, the GI50 was 2.48 µM in assay [1]; 0.942 µM in assay [2]; 0.662 µM in [3]; 1.19 µM in [4]; 2.81 µM in assay [5]; 0.764 µM in assay [6]. For the same compound, the GI50 in assay [7] was 1.57 µM; in [8], 0.683 µM; in assay [9], 1.81 µM; in assay [10] it was 1.85 µM. In addition, the TGI in assay [1] is 7.22 µM; in assay [2] it was 7.03 µM; in [3], 8.63 µM; in assay [4] it was 18.4 µM; in assay [5], greater than 100 µM; in [6] it was 21.2 µM. For the same compound, the TGI worked out at 7.14 µM in assay [7], 15.3 µM in [8], 13.1 µM in assay [9] and 5.89 µM in assay [10].
As to `COc1ccc(-c2oc(=O)ccc2C#Cc2cc(OC)c(OC)c(OC)c2)cc1O`, the GI50 was 50 µM in assay [1]; 41.5 µM in assay [2]; 67 µM in assay [3]; 22.3 µM in assay [4]; 26.3 µM in assay [5]; 31.4 µM in [6]. Moreover, the GI50 in [7] was 8.7 µM; in assay [8] it was 23.3 µM; in [9] it was 32.8 µM; in assay [10] it was 30 µM. Moreover, the TGI in assay [1] is greater than 100 µM; in assay [2], greater than 100 µM; in assay [3], greater than 100 µM; in assay [4] it was 81.2 µM; in assay [5], greater than 100 µM; in assay [6], greater than 100 µM. In addition, the TGI in [7] is 37.5 µM; in assay [8], greater than 100 µM; in assay [9] it was greater than 100 µM; in assay [10], 76.8 µM.
Take `COc1ccc(/C=C/c2c(C(=O)/C=C/c3ccc(Cl)cc3)c(C)nc3ccccc23)cc1`: the GI50 in assay [1] was 1.73 µM; in assay [2] it was 2.41 µM; in [3], 1.75 µM; in assay [4], 1.39 µM; in [5], 1.29 µM; in assay [6], 1.74 µM. Also, the GI50 was 1.59 µM in assay [7], 1.96 µM in assay [8], 1.14 µM in [9] and 1.89 µM in [10]. For the same compound, the TGI was found to be 3.56 µM in [1]; 6.97 µM in assay [2]; 3.97 µM in assay [3]; 3.35 µM in assay [4]; 4.13 µM in assay [5]; 3.29 µM in [6]. In addition, the TGI turned out to be 4.62 µM in assay [7], 5.89 µM in [8], 2.62 µM in assay [9] and 3.39 µM in assay [10].
As for `CC(CN=C(CC(=O)c1ccc(Br)cc1)c1ccccc1)N=C(CC(=O)c1ccc(Br)cc1)c1ccccc1` (stereo not given), the GI50 was 32.3 µM in assay [1]; 64.1 µM in assay [2]; 8.15 µM in assay [3]; 8.9 µM in [4]; 43.6 µM in assay [5]; greater than 100 µM in assay [6]. The GI50 was 5.53 µM in assay [7], 29.4 µM in [8], 67.1 µM in [9] and 38.8 µM in [10]. In addition, the TGI in [1], in assay [2], in assay [3], in assay [4], in assay [5] and in assay [6] was greater than 100 µM in each case. The TGI in assay [7], in assay [8], in assay [9] and in assay [10] was greater than 100 µM throughout.
